In brackets after ≈: the same amount, converted by molar mass.
Tests used:
[1] = test system: Stenotrophomonas maltophilia (CAN-ICU 62585); experiment: MIC, broth macrodilution (CLSI), S. maltophilia; assay type: cell-based; settings: S. maltophilia, footnote CAN-ICU 62584
Procedure: (§1) All compounds were tested against American Type Culture Collection (ATCC) reference strains as well as clinical isolates from the Canadian Intensive Care Unit (CAN-ICU) study (Zhanel, et al., 2008). […] Antibacterial activity against Gram-positive and Gram-negative microorganisms was performed via broth macrodilution tests using CLSI methodology (Clinical and Laboratory Standards Institute, 2006). The minimum inhibitory concentration (MIC) in μg/mL of the aminoglycoside-derived amphiphilic polycarbamates and polyethers were determined using established methods (Clinical and Laboratory Standards Institute, 2006) and are shown in Tables 1 and 2, respectively.

[2] = test system: E. coli (Amikacin MIC 32) CAN-ICU 63074; experiment: MIC, broth macrodilution (CLSI), E. coli CAN-ICU 63074; assay type: cell-based
Procedure: as §1

[3] = test system: E. coli ATCC 25922; experiment: MIC, broth macrodilution (CLSI), E. coli ATCC 25922; assay type: cell-based
Procedure: as §1

[4] = test system: S. epidermidis ATCC 14990; experiment: MIC, broth macrodilution (CLSI), S. epidermidis; assay type: cell-based, Staphylococcus epidermidis; settings: for Minimal Inhibitory Concentration (MIC): footnote ATCC 1490
Procedure: as §1

[5] = test system: methicillin-resistant Staphylococcus epidermidis (MRSE) CAN-ICU 61589; experiment: MIC, broth macrodilution (CLSI), MRSE; assay type: cell-based; settings: methicillin-resistant S. epidermidis, footnote (ATCC 14990)
Procedure: as §1

[6] = test system: Streptococcus pneumoniae ATCC 49619; experiment: MIC, broth macrodilution (CLSI), S. pneumoniae ATCC 49619; assay type: cell-based
Procedure: as §1

[7] = test system: Pseudomonas aeruginosa ATCC 27853; experiment: MIC, broth macrodilution (CLSI), P. aeruginosa ATCC 27853; assay type: cell-based
Procedure: as §1

[8] = test system: E. coli (Gentamicin-resistant) CAN-ICU 61714; experiment: MIC, broth macrodilution (CLSI), gentamicin-resistant E. coli; assay type: cell-based; settings: for Minimal Inhibitory Concentration (MIC): footnote ATCC 6174 (gentamicin resistant)
Procedure: as §1

[9] = test system: methicillin-resistant Staphylococcus aureus (MRSA) ATCC 33592; experiment: MIC, broth macrodilution (CLSI), MRSA ATCC 33592; assay type: cell-based; settings: MRSA, methicillin-resistant S. aureus ATCC 33592
Procedure: as §1

[10] = test system: P. aeruginosa (Gent-R) CAN-ICU 62308; experiment: MIC, broth macrodilution (CLSI), P. aeruginosa CAN-ICU 62308; assay type: cell-based, Pseudomonas aeruginosa
Procedure: as §1

[11] = test system: S. aureus ATCC 29213; experiment: MIC, broth macrodilution (CLSI), S. aureus ATCC 29213; assay type: cell-based, Staphylococcus aureus
Procedure: as §1

[12] = test system: Acinetobacter baumanni (CAN-ICU 63169); experiment: MIC, broth macrodilution (CLSI), A. baumannii; assay type: cell-based; settings: A. baumannii CAN-ICU 63169
Procedure: as §1

[13] = test system: S. pneumoniae ATCC 13883; experiment: MIC, broth macrodilution (CLSI), S. pneumoniae ATCC 13883; assay type: cell-based
Procedure: as §1

SMILES | Minimal Inhibitory Concentration (MIC) [1] [µg/mL] | Minimal Inhibitory Concentration (MIC) [2] [µg/mL] | Minimal Inhibitory Concentration (MIC) [3] [µg/mL] | Minimal Inhibitory Concentration (MIC) [4] [µg/mL] | Minimal Inhibitory Concentration (MIC) [5] [µg/mL] | Minimal Inhibitory Concentration (MIC) [6] [µg/mL] | Minimal Inhibitory Concentration (MIC) [7] [µg/mL] | Minimal Inhibitory Concentration (MIC) [8] [µg/mL] | Minimal Inhibitory Concentration (MIC) [9] [µg/mL] | Minimal Inhibitory Concentration (MIC) [10] [µg/mL] | Minimal Inhibitory Concentration (MIC) [11] [µg/mL] | Minimal Inhibitory Concentration (MIC) [12] [µg/mL] | Minimal Inhibitory Concentration (MIC) [13] [µg/mL] | also measured
NCC1OC(OC2C(N)CC(N)C(OC3OC(COCc4ccccc4)C(OCc4ccccc4)C(N)C3OCc3ccccc3)C2OCc2ccccc2)C(OCc2ccccc2)C(OCc2ccccc2)C1OCc1ccccc1.O=C(O)C(F)(F)F.O=C(O)C(F)(F)F.O=C(O)C(F)(F)F.O=C(O)C(F)(F)F (centres unmarked) [Compound 15] | >64 | 16 | 32 | 4 | 8 | 32 | >64 | 32 | 8 | >64 | 8 | >64 | >64 | –
NCC[C@H](O)C(=O)N[C@@H]1C[C@H](N)[C@@H](O[C@H]2O[C@H](CN)[C@@H](O)[C@H](O)[C@H]2O)[C@H](O)[C@H]1O[C@H]1O[C@H](CO)[C@@H](O)[C@H](N)[C@H]1O [Amikacin, reference compound] | – | – | – | – | – | – | – | – | – | – | – | – | – | MIC ([1]; Stenotrophomonas maltophilia, read-out: Minimal Inhibitory Concentration (MIC)): > 512 µg/mL; MIC ([2]; Escherichia coli, read-out: Minimal Inhibitory Concentration (MIC)): 32 µg/mL (≈ 54.6 µM); MIC ([3]; Escherichia coli, ATCC25922, read-out: Minimal Inhibitory Concentration (MIC)): 4 µg/mL (≈ 6.83 µM); MIC ([4]; Staphylococcus epidermidis, ATCC 1490 / ATCC 14990, footnote ATCC 1490, read-out: Minimal Inhibitory Concentration (MIC)): 1 µg/mL (≈ 1.71 µM); MIC ([5]; Staphylococcus epidermidis, ATCC 14990 / MRSE, read-out: Minimal Inhibitory Concentration (MIC)): 2 µg/mL (≈ 3.42 µM); MIC ([6]; Streptococcus pneumoniae, ATCC49619, read-out: Minimal Inhibitory Concentration (MIC)): 8 µg/mL (≈ 13.7 µM); MIC ([7]; Pseudomonas aeruginosa, ATCC27853, read-out: Minimal Inhibitory Concentration (MIC)): 4 µg/mL (≈ 6.83 µM); MIC ([8]; Escherichia coli, ATCC6174, footnote ATCC 6174 (gentamicin resistant), read-out: Minimal Inhibitory Concentration (MIC)): 2 µg/mL (≈ 3.42 µM); MIC ([9]; Staphylococcus aureus, read-out: Minimal Inhibitory Concentration (MIC)): 8 µg/mL (≈ 13.7 µM); MIC ([10]; Pseudomonas aeruginosa, read-out: Minimal Inhibitory Concentration (MIC)): 128 µg/mL (≈ 219 µM); MIC ([11]; Staphylococcus aureus, ATCC29213, read-out: Minimal Inhibitory Concentration (MIC)): 4 µg/mL (≈ 6.83 µM); MIC ([12]; read-out: Minimal Inhibitory Concentration (MIC)): 128 µg/mL (≈ 219 µM); MIC ([13]; Streptococcus pneumoniae, ATCC13883, read-out: Minimal Inhibitory Concentration (MIC)): 0.5 µg/mL (≈ 0.854 µM)
NCC1OC(OC2C(N)CC(N)C(OC(=O)Nc3ccc(Cl)cc3)C2OC2OC(COC(=O)Nc3ccc(Cl)cc3)C(OC3OC(CN)C(OC(=O)Nc4ccc(Cl)cc4)C(OC(=O)Nc4ccc(Cl)cc4)C3N)C2OC(=O)Nc2ccc(Cl)cc2)C(N)C(OC(=O)Nc2ccc(Cl)cc2)C1OC(=O)Nc1ccc(Cl)cc1.O=C(O)C(F)(F)F.O=C(O)C(F)(F)F.O=C(O)C(F)(F)F.O=C(O)C(F)(F)F.O=C(O)C(F)(F)F.O=C(O)C(F)(F)F (centres unmarked) [Compound 2] | 128 | 256 | >256 | 16 | 32 | 128 | >256 | >256 | 64 | 256 | 64 | >256 | 256 | –
CN(C)c1ccc(NC(=O)OCC2OC(OC3C(N)CC(N)C(OC4OC(CN)C(OC(=O)Nc5ccc(N(C)C)cc5)C(OC(=O)Nc5ccc(N(C)C)cc5)C4OC(=O)Nc4ccc(N(C)C)cc4)C3OC(=O)Nc3ccc(N(C)C)cc3)C(OC(=O)Nc3ccc(N(C)C)cc3)C(N)C2OC(=O)Nc2ccc(N(C)C)cc2)cc1.O=C(O)C(F)(F)F.O=C(O)C(F)(F)F.O=C(O)C(F)(F)F.O=C(O)C(F)(F)F.O=C(O)C(F)(F)F.O=C(O)C(F)(F)F.O=C(O)C(F)(F)F.O=C(O)C(F)(F)F.O=C(O)C(F)(F)F.O=C(O)C(F)(F)F.O=C(O)C(F)(F)F (centres unmarked) [Compound 7] | >256 | 256 | 256 | 16 | 32 | >256 | >256 | 256 | 32 | 256 | 16 | >256 | >256 | –
NCCC(OCc1ccc(Cl)cc1)C(=O)NC1CC(N)C(OC2OC(CN)C(OCc3ccc(Cl)cc3)C(OCc3ccc(Cl)cc3)C2OCc2ccc(Cl)cc2)C(OCc2ccc(Cl)cc2)C1OC1OC(COCc2ccc(Cl)cc2)C(OCc2ccc(Cl)cc2)C(N)C1OCc1ccc(Cl)cc1.O=C(O)C(F)(F)F.O=C(O)C(F)(F)F.O=C(O)C(F)(F)F.O=C(O)C(F)(F)F (centres unmarked) [Compound 19] | >256 | 256 | >256 | 128 | 64 | 128 | >256 | >256 | 128 | >256 | 128 | >256 | >256 | –
NCC1OC(OC2C(N)CC(N)C(OC3OC(COC(=O)Nc4ccccc4)C(OC(=O)Nc4ccccc4)C(N)C3OC(=O)Nc3ccccc3)C2OC(=O)Nc2ccccc2)C(OC(=O)Nc2ccccc2)C(OC(=O)Nc2ccccc2)C1OC(=O)Nc1ccccc1.O=C(O)C(F)(F)F.O=C(O)C(F)(F)F.O=C(O)C(F)(F)F.O=C(O)C(F)(F)F (centres unmarked) [Compound 5] | >256 | >256 | >256 | 4 | 8 | 64 | >256 | >256 | 32 | >256 | 32 | >256 | >256 | –
NCC1OC(OC2C(N)CC(N)C(OC3OC(COCc4ccc(Cl)cc4)C(OCc4ccc(Cl)cc4)C(N)C3OCc3ccc(Cl)cc3)C2OCc2ccc(Cl)cc2)C(OCc2ccc(Cl)cc2)C(OCc2ccc(Cl)cc2)C1OCc1ccc(Cl)cc1.O=C(O)C(F)(F)F.O=C(O)C(F)(F)F.O=C(O)C(F)(F)F.O=C(O)C(F)(F)F (centres unmarked) [Compound 16] | >128 | 64 | 128 | 32 | 16 | 64 | >128 | 128 | 32 | >128 | 32 | >128 | >128 | –
CCCCCCNC(=O)OCC1OC(OC2C(N)CC(N)C(OC3OC(CN)C(OC(=O)NCCCCCC)C(OC(=O)NCCCCCC)C3OC(=O)NCCCCCC)C2OC(=O)NCCCCCC)C(OC(=O)NCCCCCC)C(N)C1OC(=O)NCCCCCC.O=C(O)C(F)(F)F.O=C(O)C(F)(F)F.O=C(O)C(F)(F)F.O=C(O)C(F)(F)F (centres unmarked) [Compound 6] | >256 | 64 | 128 | 16 | 32 | 128 | 128 | 64 | 64 | 32 | 32 | >256 | >256 | –

— US8999942B2, “Polyol modified aminoglycoside-lipid conjugates” (University of Manitoba, priority 2010, dated 2015)
